Source: patent US4559402A, “Pyrazolopyridines and tetrahydro pyrazolopyridines” (Kyorin Seiyaki Kabushiki Kaisha, priority 1983, dated 1985)
Where two headings read alike, the source gives them in different places.

Assays:
[1] = Gastro-intestinal lesions in rats (ulcerogenic activity); parameters: species or system Male Wistar rats; settings: rat, in vivo, po
Protocol: Male Wistar rats weighing 250 to 300 g were used in this experiment. Ulcer formation under the satiety condition was studied as follows: Rats not fasted prior to experiment were administered orally with test compounds. The animals were allowed free access to diet and water for 24 hours after the drug administration until sacrificed by exsanguination. The stomach and the intestine were removed and examined for lesions.
In the other study, rats had been deprived of food and water for 24 hours before drug administration. The animals were administered orally with the compound of Example 2 and aspirin and then they had free access to water but not to diet. Twenty-four hours later, the animals were killed by the exsanguination. The stomach and the intestine were removed and observed carefully to know whether or not lesions were present.
Units for the UD50values: mg/kg, p.o. UD50 means the dose that
cause the lesions in 50% of animals.

[2] = system: Rabbit platelet aggregation induced by arachidonic acid; assay: Effects on rabbit platelet aggregation in vitro (PRP), arachidonic acid-induced; assay type: cell-based; settings: Oryctolagus cuniculus, 0.05 h, arachidonic acid 10^-4 M, 3 min. preincubation, read-out: IC100 (concentration which gave maximum (100%) inhibition against platelet aggregation)
Protocol: (§1) The antiaggregant activity in vitro of the present compounds was studied in platelet rich plasma from rabbit and man.
(§2) Blood was taken from the femoral artery of rabbit with a syringe containing sodium citrate (3.8%, 1 vol. in 9 vol. of blood). The citrated blood was centrifuged at 800 rpm. The supernatants were stored at 10° C. until use as platelet rich plasma (PRP) in the subsequent experiment. Platelet aggregation was determined with aggregometer (D-P 247 E, SIENCO Ltd.). Stock solution of test compounds was made by suspending at a concentration of 10 mg/ml in 1% gum arabic solution. Further, dilution was made with 0.9% saline. PRP was preincubated for 3 min. with the test compounds, and then arachidonic acid as aggregant was added at final concentration of 10^-4 M.
(§3) IC100 -values are the concentrations which gave maximum (100%) inhibition against platelet aggregation caused by arachidonic acid.

[3] = system: human platelet aggregation, collagen-induced; assay: Effects on human platelet aggregation in vitro (PRP), collagen-induced; assay type: cell-based; settings: 0.05 h, collagen 6-8 μg/ml, read-out: concentration that completely inhibited platelet aggregation
Protocol: as §1, §2, §3
(§4) Blood samples were taken from median cubital vein of 5 healthy volunteers (male, 30 to 42 age) with plastic syringe. The citrated blood (sodium citrate 1 vol. in 9 vol. of blood) was centrifuged at 1000 rpm. The supernatant (PRP) was stored at 10° C. and used within 5 hours. Arachidonic acid (4-8×10^-4 M) and collagen (6-8 μg/ml, SIGMA, Type III) were used as aggregants. Other procedures were the same as in Experiment 1.

[4] = Acute Toxicity (LD50), rats; settings: rat, in vivo
[5] = Effect on blood viscosity (whole blood and plasma viscosities, hematocrit); assay type: in vivo, Male Wistar rats; settings: rat, 10 mg/kg p.o. twice a day for 2 days
Protocol: Male Wistar rats weighing 300-380 g were used in this experiment. Rats were administered orally 10 mg/kg twice a day of the compound of Example 2 for 2 days. One hour after the last treatment, rats were anaesthetized with pentobarbital 35 mg/kg ip, and then blood was taken from vena cava caudalis. EDTA was added at a final concentration of 2 mM.
Whole blood and plasma viscosities were measured with rotational viscometer (Contraves LS-30, shear rate 0-128.5 sec.^-1, 37° C.) and hematocrit was determined by microhematocrit centrifugation (13,000 g for 5 min.).

[6] = system: human platelet aggregation, arachidonic acid-induced; assay: Effects on human platelet aggregation in vitro (PRP), arachidonic acid-induced; assay type: cell-based
Protocol: as §1, §2, §3, §4

[7] = system: arachidonic acid-induced aggregation of platelets from rabbit; assay: Ex vivo studies on platelet aggregation (PRP from rabbit administered orally), arachidonic acid-induced; assay type: in vivo; settings: oral, blood taken one hour after administration, FIG. 1
Protocol: To know the absorbability and potency of the compound of this invention, another platelet aggregation tests were done using the PRP from rabbit which had been administered orally with the drugs.
Rabbits were administered orally with the compound of Example 2 or aspirin. One hour after the drug administration, blood was taken from the femoral artery. The methods for preparing PRP and determining platelet aggregation were the same as Experiment 1.

[8] = Acute Toxicity (LD50), mice; settings: mouse, in vivo
[9] = iv, read-out: Acute Toxicity LD50, I.V.
[10] = po, read-out: Acute Toxicity LD50, P.O.

With `CC(=O)Oc1ccccc1C(=O)O` [Aspirin, reference compound] the TD50 at 24 h ([1]; deprived of food and water for 24 hours before, examined 24 hours after, read-out: UD50 (dose that cause the lesions in 50% of animals), Fasting) was 25 to 50 mg/kg, the TD50 at 24 h ([1]; not fasted, 24 hours, read-out: UD50 (dose that cause the lesions in 50% of animals), Satiety) was 230 mg/kg and the IC100 [2] was 4 µg/mL. It also gave an IC100 [3] of 100 µg/mL.
With `Cc1nn2ccccc2c1C(=O)c1cccnc1` [Example 1, 2-methyl-3-nicotinoylpyrazolo[1,5-a]pyridine] the IC100 [2] was 6 µg/mL.
For `Cc1nn2ccccc2c1C(=O)C1=CNCCC1` [Example 2, 2-methyl-3-(1,4,5,6-tetrahydronicotinoyl)pyrazolo[1,5-a]pyridine], the LD50 [4, 9] was greater than 100 mg/kg, the LD50 [4, 10] was greater than 1000 mg/kg and the effect on hematocrit [5] was “no effects”. For the same compound, the “effect on plasma viscosity” value [5] was “no effects”, the “reduction of whole blood viscosity, shear rate 0.1285 sec.^-1” value [5] was 50.1% and the “reduction of whole blood viscosity, shear rate 0.514 sec.^-1” value [5] was 36.1%. The “reduction of whole blood viscosity, shear rate 6.425 sec.^-1” value [5] was 23.5%, the “reduction of whole blood viscosity, shear rate 25.7 sec.^-1” value [5] was 19.2% and the “reduction of whole blood viscosity, shear rate 128.5 sec.^-1” value [5] was 12.0%. The “Plasma Viscosity” value ([5]; 37° C.) was 1.14 ± 0.01 mPS, the “Whole Blood Viscosity, shear rate 0.1285 sec.^-1” value ([5]; 37° C., * p < 0.05 vs vehicle) was 24.8 ± 2.71 mPS and the “Whole Blood Viscosity, shear rate 0.514 sec.^-1” value ([5]; 37° C., * p < 0.05 vs vehicle) was 17.2 ± 1.31 mPS. The “Whole Blood Viscosity, shear rate 6.425 sec.^-1” value ([5]; 37° C., * p < 0.05 vs vehicle) was 7.31 ± 0.36 mPS, the “Whole Blood Viscosity, shear rate 25.7 sec.^-1” value ([5]; 37° C., * p < 0.05 vs vehicle) was 5.18 ± 0.12 mPS and the “Whole Blood Viscosity, shear rate 128.5 sec.^-1” value ([5]; 37° C., * p < 0.05 vs vehicle) was 3.68 ± 0.08 mPS. The Hematocrit ([5]; microhematocrit centrifugation) was 46.0 ± 0.71%, the “difference in the IC100-values between individuals” value ([6]; arachidonic acid and collagen, considered to be due to individual difference) was “About 300 folds” and the “inhibitory activity against both arachidonic acid- and collagen-induced platelet aggregation” value ([6]; comparison of the two aggregants) was “almost the same inhibitory activity”. For the same compound, the TD50 at 24 h ([1]; UD50 (dose that cause the lesions in 50% of animals), Fasting) was 300 to 500 mg/kg, the TD50 at 24 h ([1]; UD50 (dose that cause the lesions in 50% of animals), Satiety) was greater than 1000 mg/kg and the IC100 [2] was 0.03 µg/mL. For the same compound, the “inhibitory activity on arachidonic acid-induced platelet aggregation relative to aspirin” value [7] was “several times as high as aspirin”, the LD50 [8, 9] was 125 to 150 mg/kg and the LD50 [8, 10] was greater than 1000 mg/kg.
Compound `Cc1nn2c(c1C(=O)C1=CNCCC1)CCCC2` [Example 3, 2-methyl-3-(1,4,5,6-tetrahydronicotinoyl)-4,5,6,7-tetrahydropyrazole[1,5-a]pyridine] has an IC100 [2] of 0.2 µg/mL.
Compound `Cc1nn2ccccc2c1C(=O)C1=CN(C(=O)Nc2ccc(Cl)cc2)CCC1` [Example 4, 2-methyl-3-[1-(p-chlorophenylcarbamoyl)-1,4,5,6-tetrahydronicotinoyl]-pyrazolo[1,5-a]pyridine] has an IC100 [2] of 1 µg/mL.
`CCOC(=O)C(C)N1C=C(C(=O)c2c(C)nn3ccccc23)CCC1` (centres unmarked) [Example 10, 3-[1-(1-ethoxycarbonylethyl)-1,4,5,6-tetrahydronicotinoyl]-2-methylpyrazolo-[1,5-a]pyridine] showed an IC100 [2] of 0.3 µg/mL.
